Experiments:
[1] = test system: Sweet potato Whitefly (Bemisia tabaci, BEMITA); assay: Bioassay 2: Sweet potato Whitefly foliar spray on cotton seedlings; format: in vivo; conditions: for Bemisia tabaci Mean LC50 PPM: cotton seedlings sprayed at crawler emergence, 2-3 instar nymphs counted 7-9 days after treatment, Abbott-corrected percent control, mean of replicates; for Bemisia tabaci % (percent increase in the Mean LC50 required): relative to F1: ((LC50 - LC50 of F1)/LC50 of F1)*100
Method: (§1) F1, CE1, CE2, CE3, and CE4 (2 mg each) were each dissolved in 2 mL of acetone/methanol (1:1) solvent, forming stock solutions of 1000 ppm for each test molecule. The stock solutions were diluted 5× with 0.025% Tween® 20 in water to obtain test solutions at 200 ppm for each test molecule. Subsequent 4× dilutions, in water containing 0.025% Tween® 20 and 10% acetone/methanol (1:1), were used to generate the desired concentrations for dose responses. A minimum of 5 concentrations of each test molecule were used for each assay.
(§2) [formula] where X=No. of live aphids on solvent check plants and Y=No. of live aphids on treated plants. Bioassay 2: Sweet potato Whitefly (Bemisia tabaci, BEMITA) (“SPW”).
Test solutions of Formula One and the Comparative Examples, prepared as described above, were tested against SPW using the following procedure.
Cotton seedlings grown in 3-inch pots, pruned so that only one true leaf remained, were used as test substrate. Adult B. tabaci were allowed to colonize these plants and lay eggs for 24 hours after which all adults were removed from the plants using compressed air. Plants were monitored for egg development and, when crawler emergence was underway (>25% emergence based on visual examination using a microscope), the plants were sprayed using the test solutions and methods described above for green peach aphids (GPA). Treated plants were held in a holding room at approximately 25° C. and ambient relative humidity (RH) prior to grading. Evaluation was conducted by counting the number of developed 2-3 instar nymphs per plant under a microscope 7-9 days after treatment. Percent control was measured using Abbott's correction formula (W. S. Abbott, “A Method of Computing the Effectiveness of an Insecticide” J. Econ. Entomol. 18 (1925), pp. 265-267) as follows:
[formula] where X=No. of live nymphs on solvent check plants and Y=No. of live nymphs on treated plants. Analysis of Bioassays

[2] = test system: Green Peach Aphid (Myzus persicae, MYZUPE); assay: Bioassay 1: Green Peach Aphid foliar spray on cabbage seedlings; format: in vivo; conditions: for Myzus persicae Mean LC50 PPM: infested cabbage seedlings sprayed until runoff, live aphids counted three days after treatment, Abbott-corrected percent control, mean of replicates; for Myzus persicae % (percent increase in the Mean LC50 required): relative to F1: ((LC50 - LC50 of F1)/LC50 of F1)*100
Method: as §1
Bioassay 1: Green Peach Aphid (Myzus persicae, MYZUPE) (“GPA”).
Test solutions of Formula One and the Comparative Examples, prepared as described above, were tested against GPA using the following procedure.
Cabbage seedlings grown in 3-inch pots, with 2-3 small (3-5 cm) true leaves, were used as test substrate. The seedlings were infested with 20-50 GPA (wingless adult and nymph stages) one day prior to chemical application. Four pots with individual seedlings were used for each treatment. A hand-held aspirator-type sprayer was used for spraying a solution to both sides of […] leaves until runoff. Reference plants (solvent check) were sprayed with the diluent only (0.025% Tween® 20 and 10% acetone/methanol (1:1) in water). Treated plants were held in a holding room for three days at approximately 25° C. and ambient relative humidity (RH) prior to grading. Evaluation was conducted by counting the number of live aphids per plant under a microscope three days after treatment. Percent control was measured using Abbott's correction formula (W. S. Abbott, “A Method of Computing the Effectiveness of an Insecticide” J. Econ. Entomol. 18 (1925), pp. 265-267) as follows:
as §2

| Compound | Bemisia tabaci Mean LC50 PPM [1] | Myzus persicae Mean LC50 PPM [2] | Myzus persicae % (percent increase in the Mean LC50 required) [2] | Bemisia tabaci % (percent increase in the Mean LC50 required) [1] |
| --- | --- | --- | --- | --- |
| CS(=O)(=O)CC(=O)Nc1cn(-c2cccnc2)nc1Cl [CE3, N-(3-chloro-1-(pyridin-3-yl)-1H-pyrazol-4-yl)-2-(methylsulfonyl)acetamide] | 25.35 PPM | 0.05 PPM | −29% |  |
| CN(C(=O)CS(C)(=O)=O)c1cn(-c2cccnc2)nc1Cl [CE2, N-(3-chloro-1-(pyridin-3-yl)-1H-pyrazol-4-yl)-N-methyl-2-(methylsulfonyl)acetamide] | 21.01 PPM | 0.52 PPM |  |  |
| CC(C(=O)Nc1cn(-c2cccnc2)nc1Cl)S(C)(=O)=O (centres unmarked) [Molecule F1, N-(3-chloro-1-(pyridin-3-yl)-1H-pyrazol-4-yl)-2-(methylsulfonyl)propanamide] | 4.87 PPM | 0.07 PPM |  |  |
| CC(C(=O)N(C)c1cn(-c2cccnc2)nc1Cl)S(C)(=O)=O (centres unmarked) [CE1, N-(3-chloro-1-(pyridin-3-yl)-1H-pyrazol-4-yl)-N-methyl-2-(methylsulfonyl)propanamide] | 5.61 PPM | 0.29 PPM |  | 15% |
| CC(C)(C(=O)Nc1cn(-c2cccnc2)nc1Cl)S(C)(=O)=O [CE4, N-(3-chloro-1-(pyridin-3-yl)-1H-pyrazol-4-yl)-2-methyl-2-(methylsulfonyl)propanamide] | 9.72 PPM | 2.17 PPM | 3000% | 100% |
